Results reported in ChEMBL document CHEMBL4414672, “Synthesis of certain benzothieno[3,2-d]pyrimidine derivatives as a selective SIRT2 inhibitors” (Eur J Med Chem, 2020).

Experiments:
Format in all cases: functional
A498 = test: Growth inhibition of human A498 cells at 10^-5 M incubated for 48 hrs by sulforhodamine B assay; settings: A498, 48 h, read-out: GI
NCI-H226 = test: Growth inhibition of human NCI-H226 cells at 10^-5 M incubated for 48 hrs by sulforhodamine B assay; settings: NCI-H226, 48 h, read-out: GI
SR = test: Growth inhibition of human SR cells at 10^-5 M incubated for 48 hrs by sulforhodamine B assay; settings: read-out: GI
SF-295 = test: Growth inhibition of human SF295 cells at 10^-5 M incubated for 48 hrs by sulforhodamine B assay; settings: SF-295, 48 h, read-out: GI
BT-549 = test: Growth inhibition of human BT549 cells at 10^-5 M incubated for 48 hrs by sulforhodamine B assay; settings: BT-549, 48 h, read-out: GI
PC-3 = test: Growth inhibition of human PC3 cells at 10^-5 M incubated for 48 hrs by sulforhodamine B assay; settings: PC-3, 48 h, read-out: GI
UACC-257 = test: Growth inhibition of human UACC257 cells at 10^-5 M incubated for 48 hrs by sulforhodamine B assay; settings: UACC-257, 48 h, read-out: GI
MDA-MB-435 = test: Growth inhibition of human MDA-MB-435 cells at 10^-5 M incubated for 48 hrs by sulforhodamine B assay; settings: MDA-MB-435, 48 h, read-out: GI
SNB-19 = test: Growth inhibition of human SNB19 cells at 10^-5 M incubated for 48 hrs by sulforhodamine B assay; settings: SNB-19, 48 h, read-out: GI
Hs-578T = test: Growth inhibition of human Hs 578T cells at 10^-5 M incubated for 48 hrs by sulforhodamine B assay; settings: read-out: GI
MCF7 = test: Growth inhibition of human MCF7 cells at 10^-5 M incubated for 48 hrs by sulforhodamine B assay; settings: MCF7, 48 h, read-out: GI
HCC 2998 = test: Growth inhibition of human HCC2998 cells at 10^-5 M incubated for 48 hrs by sulforhodamine B assay; settings: HCC 2998, 48 h, read-out: GI
HCT-15 = test: Growth inhibition of human HCT15 cells at 10^-5 M incubated for 48 hrs by sulforhodamine B assay; settings: HCT-15, 48 h, read-out: GI
LOX IMVI = test: Growth inhibition of human LOXIMVI cells at 10^-5 M incubated for 48 hrs by sulforhodamine B assay; settings: read-out: GI
T47D = test: Growth inhibition of human T47D cells at 10^-5 M incubated for 48 hrs by sulforhodamine B assay; settings: read-out: GI
EKVX = test: Growth inhibition of human EKVX cells at 10^-5 M incubated for 48 hrs by sulforhodamine B assay; settings: read-out: GI
A549 = test: Growth inhibition of human A549/ATCC cells at 10^-5 M incubated for 48 hrs by sulforhodamine B assay; settings: A549, 48 h, read-out: GI
SN12C = test: Growth inhibition of human SN12C cells at 10^-5 M incubated for 48 hrs by sulforhodamine B assay; settings: read-out: GI
OVCAR-4 = test: Growth inhibition of human OVCAR4 cells at 10^-5 M incubated for 48 hrs by sulforhodamine B assay; settings: OVCAR-4, 48 h, read-out: GI
UACC-62 = test: Growth inhibition of human UACC62 cells at 10^-5 M incubated for 48 hrs by sulforhodamine B assay; settings: UACC-62, 48 h, read-out: GI
SF-539 = test: Growth inhibition of human SF539 cells at 10^-5 M incubated for 48 hrs by sulforhodamine B assay; settings: SF-539, 48 h, read-out: GI
SK-MEL-28 = test: Growth inhibition of human SK-MEL-28 cells at 10^-5 M incubated for 48 hrs by sulforhodamine B assay; settings: SK-MEL-28, 48 h, read-out: GI
DU-145 = test: Growth inhibition of human DU145 cells at 10^-5 M incubated for 48 hrs by sulforhodamine B assay; settings: DU-145, 48 h, read-out: GI
OVCAR-5 = test: Growth inhibition of human OVCAR5 cells at 10^-5 M incubated for 48 hrs by sulforhodamine B assay; settings: OVCAR-5, 48 h, read-out: GI
COLO 205 = test: Growth inhibition of human COLO205 cells at 10^-5 M incubated for 48 hrs by sulforhodamine B assay; settings: COLO 205, 48 h, read-out: GI
NCI-H522 = test: Growth inhibition of human NCI-H522 cells at 10^-5 M incubated for 48 hrs by sulforhodamine B assay; settings: NCI-H522, 48 h, read-out: GI
OVCAR-3 = test: Growth inhibition of human OVCAR3 cells at 10^-5 M incubated for 48 hrs by sulforhodamine B assay; settings: OVCAR-3, 48 h, read-out: GI
TK-10 = test: Growth inhibition of human TK10 cells at 10^-5 M incubated for 48 hrs by sulforhodamine B assay; settings: TK-10, 48 h, read-out: GI
NCI-H322M = test: Growth inhibition of human NCI-H322M cells at 10^-5 M incubated for 48 hrs by sulforhodamine B assay; settings: read-out: GI
MDA-MB-468 = test: Growth inhibition of human MDA-MB-468 cells at 10^-5 M incubated for 48 hrs by sulforhodamine B assay; settings: MDA-MB-468, 48 h, read-out: GI
IGROV-1 = test: Growth inhibition of human IGROV1 cells at 10^-5 M incubated for 48 hrs by sulforhodamine B assay; settings: IGROV-1, 48 h, read-out: GI
CCRF-CEM = test: Growth inhibition of human CCRF-CEM cells at 10^-5 M incubated for 48 hrs by sulforhodamine B assay; settings: read-out: GI
HT-29 = test: Growth inhibition of human HT-29 cells at 10^-5 M incubated for 48 hrs by sulforhodamine B assay; settings: HT-29, 48 h, read-out: GI
ACHN = test: Growth inhibition of human ACHN cells at 10^-5 M incubated for 48 hrs by sulforhodamine B assay; settings: read-out: GI
MOLT-4 = test: Growth inhibition of human MOLT4 cells at 10^-5 M incubated for 48 hrs by sulforhodamine B assay; settings: MOLT-4, 48 h, read-out: GI
Malme-3M = test: Growth inhibition of human MALME-3M cells at 10^-5 M incubated for 48 hrs by sulforhodamine B assay; settings: read-out: GI
CAKI-1 = test: Growth inhibition of human Caki1 cells at 10^-5 M incubated for 48 hrs by sulforhodamine B assay; settings: CAKI-1, 48 h, read-out: GI
SW-620 = test: Growth inhibition of human SW620 cells at 10^-5 M incubated for 48 hrs by sulforhodamine B assay; settings: SW-620, 48 h, read-out: GI
SNB-75 = test: Growth inhibition of human SNB75 cells at 10^-5 M incubated for 48 hrs by sulforhodamine B assay; settings: SNB-75, 48 h, read-out: GI

Structure (SMILES)	inhibition of growth at 10 µM (A498)	inhibition of growth at 10 µM (NCI-H226)	inhibition of growth at 10 µM (SR)	inhibition of growth at 10 µM (SF-295)	inhibition of growth at 10 µM (BT-549)	inhibition of growth at 10 µM (PC-3)	inhibition of growth at 10 µM (UACC-257)	inhibition of growth at 10 µM (MDA-MB-435)	inhibition of growth at 10 µM (SNB-19)	inhibition of growth at 10 µM (Hs-578T)	inhibition of growth at 10 µM (MCF7)	inhibition of growth at 10 µM (HCC 2998)	inhibition of growth at 10 µM (HCT-15)	inhibition of growth at 10 µM (LOX IMVI)	inhibition of growth at 10 µM (T47D)	inhibition of growth at 10 µM (EKVX)	inhibition of growth at 10 µM (A549)	inhibition of growth at 10 µM (SN12C)	inhibition of growth at 10 µM (OVCAR-4)	inhibition of growth at 10 µM (UACC-62)	further results
O=[N+]([O-])c1cccc(C2NC(N3CCOCC3)=Nc3c2sc2ccc(Cl)cc32)c1 (stereo unspecified)	1.88%	14.4%	1.5%	-4.89%	-6.2%	23%	-6.32%	-6.59%	2.54%	1.47%	23.1%	-6.02%	-7.82%	3.74%	21.6%	16.4%	-1.35%	3.85%	1.77%	8.77%	inhibition of growth at 10 µM (SF-539): 6.94%; inhibition of growth at 10 µM (SK-MEL-28): -22.1%; inhibition of growth at 10 µM (DU-145): -13.7%; inhibition of growth at 10 µM (OVCAR-5): -1.26%; inhibition of growth at 10 µM (COLO 205): -6.02%; inhibition of growth at 10 µM (NCI-H522): 3.46%; inhibition of growth at 10 µM (OVCAR-3): -0.17%; inhibition of growth at 10 µM (TK-10): -10.7%; inhibition of growth at 10 µM (NCI-H322M): 6.39%; inhibition of growth at 10 µM (MDA-MB-468): -5.77%; inhibition of growth at 10 µM (IGROV-1): 25%; inhibition of growth at 10 µM (CCRF-CEM): -3.36%; inhibition of growth at 10 µM (HT-29): -2.72%; inhibition of growth at 10 µM (ACHN): 10.4%; inhibition of growth at 10 µM (MOLT-4): 1.35%; inhibition of growth at 10 µM (Malme-3M): 4.08%; inhibition of growth at 10 µM (CAKI-1): 27.7%; inhibition of growth at 10 µM (SW-620): -1.57%; inhibition of growth at 10 µM (SNB-75): 10.7%
S=C1Nc2c(sc3ccc(Cl)cc23)C(c2cccc(Br)c2)N1 (stereo unspecified)	31.7%	15.2%	16.3%	1%	-10.2%	6.34%	-8.63%	-2.42%	2.38%	4.32%	-11.9%	-27.2%	0.95%	-0.61%	24.5%	12.4%	-7.88%	2.82%	8.7%	13%	inhibition of growth at 10 µM (SF-539): 1%; inhibition of growth at 10 µM (SK-MEL-28): -15.7%; inhibition of growth at 10 µM (DU-145): -11.9%; inhibition of growth at 10 µM (OVCAR-5): -0.03%; inhibition of growth at 10 µM (COLO 205): -2.63%; inhibition of growth at 10 µM (NCI-H522): 12%; inhibition of growth at 10 µM (OVCAR-3): -0.26%; inhibition of growth at 10 µM (TK-10): -18.3%; inhibition of growth at 10 µM (NCI-H322M): 5.66%; inhibition of growth at 10 µM (MDA-MB-468): -5.67%; inhibition of growth at 10 µM (IGROV-1): 22.6%; inhibition of growth at 10 µM (CCRF-CEM): -16.1%; inhibition of growth at 10 µM (HT-29): 0.35%; inhibition of growth at 10 µM (ACHN): 4.77%; inhibition of growth at 10 µM (MOLT-4): 11.5%; inhibition of growth at 10 µM (Malme-3M): -1%; inhibition of growth at 10 µM (CAKI-1): 19.2%; inhibition of growth at 10 µM (SW-620): -1.6%; inhibition of growth at 10 µM (SNB-75): 18.5%
O=C1/C(=C\c2ccccc2O)Sc2ccc(Cl)cc21	3.49%	4.98%	26.2%	-6.81%	-20.1%	1.43%	-1.33%	-5.13%	-7.92%	3.91%	-12.3%	-25.6%	-7.07%	9.63%	22.2%	13.3%	-0.44%	5.15%	1.63%	22.3%	inhibition of growth at 10 µM (SF-539): -6.81%; inhibition of growth at 10 µM (SK-MEL-28): -14.6%; inhibition of growth at 10 µM (DU-145): -12.3%; inhibition of growth at 10 µM (OVCAR-5): -0.88%; inhibition of growth at 10 µM (COLO 205): -5.97%; inhibition of growth at 10 µM (NCI-H522): 5.61%; inhibition of growth at 10 µM (OVCAR-3): -11.6%; inhibition of growth at 10 µM (TK-10): -16%; inhibition of growth at 10 µM (NCI-H322M): 10.4%; inhibition of growth at 10 µM (MDA-MB-468): -4.1%; inhibition of growth at 10 µM (IGROV-1): 0.45%; inhibition of growth at 10 µM (CCRF-CEM): -1.92%; inhibition of growth at 10 µM (HT-29): -12.2%; inhibition of growth at 10 µM (ACHN): 2.5%; inhibition of growth at 10 µM (MOLT-4): 11.4%; inhibition of growth at 10 µM (Malme-3M): 4.11%; inhibition of growth at 10 µM (CAKI-1): 15.9%; inhibition of growth at 10 µM (SW-620): -11.4%; inhibition of growth at 10 µM (SNB-75): 22.3%
S=C1Nc2c(sc3ccc(Cl)cc23)C(c2ccc3ccccc3c2)N1 (stereo unspecified)	14.9%	20.6%	19.4%	3.23%	-9.88%	14.5%	1.95%	-2.5%	7.85%	8.86%	-6.73%	-16.7%	2.67%	7.47%	22.5%	14.6%	7.47%	9.45%	11%	13.9%	inhibition of growth at 10 µM (SF-539): 3.23%; inhibition of growth at 10 µM (SK-MEL-28): -2.16%; inhibition of growth at 10 µM (DU-145): -6.73%; inhibition of growth at 10 µM (OVCAR-5): 5.36%; inhibition of growth at 10 µM (COLO 205): 0.1%; inhibition of growth at 10 µM (NCI-H522): 17.7%; inhibition of growth at 10 µM (OVCAR-3): 3.25%; inhibition of growth at 10 µM (TK-10): -25.5%; inhibition of growth at 10 µM (NCI-H322M): 13.9%; inhibition of growth at 10 µM (MDA-MB-468): 4.47%; inhibition of growth at 10 µM (IGROV-1): 16.8%; inhibition of growth at 10 µM (CCRF-CEM): -3.09%; inhibition of growth at 10 µM (HT-29): 0.32%; inhibition of growth at 10 µM (ACHN): 12.4%; inhibition of growth at 10 µM (MOLT-4): 7.43%; inhibition of growth at 10 µM (Malme-3M): 18.4%; inhibition of growth at 10 µM (CAKI-1): 27.5%; inhibition of growth at 10 µM (SW-620): 3.99%; inhibition of growth at 10 µM (SNB-75): 26%
